Assays:
[1] = molecular target: p-glycoprotein (Homo sapiens, UniProt P08183); details: for EC50: cem/vlb100 cells, 72 h; for Rev100 (lowest concentration of modifier which can achieve 100% reversal activity): human, 4320 min
Experimental: When in vitro testing for multidrug resistance modulation with cancer chemotherapeutic drugs is conducted compounds are evaluated for their ability to show multidrug resistance modulation when coadministered with an oncolytic.
The cells can be maintained in SMEM medium supplemented with 10% FBS and 2 mM L-glutamine in a humidified incubator with 95% air and 5% C02. Cell number can be determined using a Coulter Counter model ZM. Cells can be subcultured every 3-4 days.
Cell viability can be determined using a modified MTT dye reduction method (Denziot, F., Lang, R., "Rapid colorimetric assay for cell growth and survival modifications to the tetrazolium procedure giving improved sensitivity and reliability", J. Immunological Methods, 89, 271-277, (1986)). A brief description of this method is as follows: cells are harvested during the logarithmic growth phase, and seeded in 96-well serocluster plates at 7.5×10^3 cells/well and cultured for 72 hours in the presence of serially diluted oncolytics (VLB, DOX, VP-16 and Taxol®)±modulators. A single well assay is conducted using a fixed concentration of VLB (4 ng/ml) and modulator (5μM). The cytotoxicity of the modulator alone, at the same concentration is also determined. Modulators are prepared as 2 mM stocks in DMSO and added to the wells to give final concentrations ranging from 5 pM to 0.5 WM. After 72 hours, 20 µl of freshly prepared MTT (5 mg/ml in Dulbecco's phosphate buffered saline pH 7.5) is added to each well and placed for 4 hours in a 37° C. incubator. Cells are pelleted at 1800 R.P.M. for 10 minutes in a Sorvall RT6000B centrifuge. After centrifugation, 70 μl of medium is carefully removed from each well, and 100 µl of 2- propanol/0.04 N HC1 is added to dissolve the blue formazan stained cells. Cells are resuspended 5-10 times with a multipipettor or until no particulate matter was visible. Plates are immediately read on a Yitertek MCC/340 microplate reader (Flow Laboratories (McLean, VA) with a wavelength of 570 nm and a reference wavelength of 630 nm). Controls are measured in quadruplicate and modulators in duplicate.
IC50 's are calculated from semilog dose response curves in the presence and absence of modulators for both the parent and resistant cell lines. The fold shift is calculated as the IC50 for cells treated with oncolytic alone divided by the IC50 for cells treated with oncolytic+modulator.

[2] = system: multidrug resistance; details: in vivo; cited from earlier work
[3] = in vivo; cited from earlier work
[4] = system: drug-resistant malaria; details: in vitro; cited from earlier work

Chain of p-glycoprotein (P08183 whole entry): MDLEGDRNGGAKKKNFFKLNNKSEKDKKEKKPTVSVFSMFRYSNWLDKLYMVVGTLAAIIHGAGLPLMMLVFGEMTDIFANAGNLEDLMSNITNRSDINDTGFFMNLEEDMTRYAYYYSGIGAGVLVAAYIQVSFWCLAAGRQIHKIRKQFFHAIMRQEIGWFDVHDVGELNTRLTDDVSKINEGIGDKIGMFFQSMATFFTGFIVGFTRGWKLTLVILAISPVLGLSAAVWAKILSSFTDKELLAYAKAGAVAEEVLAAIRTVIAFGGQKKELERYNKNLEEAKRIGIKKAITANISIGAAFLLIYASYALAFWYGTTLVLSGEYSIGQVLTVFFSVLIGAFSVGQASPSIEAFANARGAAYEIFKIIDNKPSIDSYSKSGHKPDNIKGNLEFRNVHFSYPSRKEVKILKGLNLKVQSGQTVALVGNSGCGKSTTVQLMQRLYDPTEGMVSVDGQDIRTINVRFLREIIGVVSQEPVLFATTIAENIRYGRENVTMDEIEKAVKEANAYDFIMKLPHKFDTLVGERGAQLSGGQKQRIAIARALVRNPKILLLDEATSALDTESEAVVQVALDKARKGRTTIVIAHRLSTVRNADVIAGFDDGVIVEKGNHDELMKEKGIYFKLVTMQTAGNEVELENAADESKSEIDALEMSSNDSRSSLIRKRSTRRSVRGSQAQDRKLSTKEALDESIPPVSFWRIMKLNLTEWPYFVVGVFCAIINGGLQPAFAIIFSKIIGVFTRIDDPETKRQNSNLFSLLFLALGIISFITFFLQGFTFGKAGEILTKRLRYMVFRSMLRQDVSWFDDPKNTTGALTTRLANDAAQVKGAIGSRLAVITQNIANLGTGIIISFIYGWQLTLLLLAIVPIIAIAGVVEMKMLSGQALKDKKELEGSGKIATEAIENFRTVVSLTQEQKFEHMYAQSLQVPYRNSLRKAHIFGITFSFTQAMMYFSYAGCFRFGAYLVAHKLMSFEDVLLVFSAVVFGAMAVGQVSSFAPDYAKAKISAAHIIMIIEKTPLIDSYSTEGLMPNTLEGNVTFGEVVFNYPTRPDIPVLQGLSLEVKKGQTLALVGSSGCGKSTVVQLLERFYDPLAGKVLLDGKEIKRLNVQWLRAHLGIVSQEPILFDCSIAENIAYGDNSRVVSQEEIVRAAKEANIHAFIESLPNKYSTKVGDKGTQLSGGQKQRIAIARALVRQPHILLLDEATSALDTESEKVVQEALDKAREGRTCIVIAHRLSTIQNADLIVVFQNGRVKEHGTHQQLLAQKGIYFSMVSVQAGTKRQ

SMILES	MDR Reversal Activity [1]	EC50 [1]	Rev100 (lowest concentration of modifier which can achieve 100% reversal activity) [1]	dose required to be effective as a multidrug resistance modulator [2]	oral bioavailability [3]	effect on drug-resistant malaria [4]
OC(CCc1cccc2ncccc12)CN1CCN([C@@H]2c3ccccc3[C@@H]3[C@H](c4ccccc42)C3(F)F)CC1 (stereo partly drawn) [Example 1e, anti-5-{1-(4-(10,11-difluorocyclopropyldibenzosuber-5-yl)piperazin-1-yl)-2(R,S)-hydroxybut-4-yl}quinoline·3HC1]	potent	1000 nM	> 1.0 µM			
O[C@@H](CSc1cccc2ncccc12)CN1CCN([C@@H]2c3ccccc3[C@@H]3[C@H](c4ccccc42)C3(F)F)CC1 [Example 2b, anti-5-{l-(4-(10,11-difluorocyclopropyldi-benzosuber-5-yl)piperazin-1-yl)-2(R)-hydroxyprop-3-ylthio}quinoline·3HC1]	potent	250 nM	0.50 µM			
O=C(C(c1ccccc1)c1ccccc1)N1CCN(CC(O)COc2cccc3ncccc23)CC1 (stereo not drawn) [MS-209]				higher doses	better	
COc1ccc(CCN(C)CCCC(C#N)(c2ccc(OC)c(OC)c2)C(C)C)cc1OC (stereo not drawn) [verapamil]						effective

— patent US5776939A, “Drug resistance and multidrug resistance modulators” (Eli Lilly and Company, priority 1997, dated 1998)
